Results reported in patent US8999967B2, “Tricyclic fused ring inhibitors of hepatitis C” (Presidio Pharmaceuticals, Inc., priority 2010, dated 2015).

What follows are compounds tested on HCV 1b_Huh-Luc/Neo-ET cell line (genotype 1b replicon in Huh 7 cells) (assay: HCV replicon assay (luciferase readout)). Details: Hepatitis C virus, HCV 1b replicon in Huh 7 cells, 72 h incubation, EC50 range class, read-out: Inhibition of HCV genotype 1b.
Format: cell-based
Description: Biological activity of the compounds of the invention was determined using an HCV replicon assay. The HCV 1b_Huh-Luc/Neo-ET cell line persistently expressing a bicistronic genotype 1b replicon in Huh 7 cells was obtained from ReBLikon GMBH. This cell line was used to test compound inhibition using luciferase enzyme activity readout as a measurement of compound inhibition of replicon levels.
On Day 1 (the day after plating cells), each compound is added in triplicate to the cells. Plates are incubated for 72 h prior to determining luciferase levels. Enzyme activity was measured using a Bright-Glo Kit (cat. number E2620) manufactured by Promega Corporation. The following equation was used to generate a percent control value for each compound. % Control=(Compound Luciferase Level/Control Luciferase Level)*100
The EC50 value was determined using GraphPad Prism and the following equation: Y=Bottom asymptote+(Top asymptote-Bottom asymptote)/(1+10^((Log EC50−X)*HillSlope))
EC50 values of compounds are determined several times in the replicon assay to generate average EC50 values. […]

For `COC(=O)N[C@H](C(=O)N1CCC[C@H]1c1ncc(-c2ccc3c(c2)Oc2ccc(-c4cnc([C@@H]5CCCN5C(=O)[C@@H](NC(=O)OC)[C@@H](C)OC)[nH]4)cc2C3(C)C)[nH]1)[C@@H](C)OC` [Compound 71], which EC50 is on record?
Its EC50 is < 1 nM.

For `COC(=O)N[C@H](C(=O)N1CCC[C@H]1c1ncc(-c2ccc3c(c2)Oc2ccc(-c4cnc([C@@H]5CCCN5C(=O)[C@@H](NC(=O)OC)C5CCOCC5)[nH]4)cc2C3(C)C)[nH]1)C1CCOCC1` [Compound 75], which EC50 is on record?
Its EC50 is < 1 nM.

Which EC50 does the source give for `CC[C@H](C)[C@H](NC(=O)OC)C(=O)N1CCC[C@H]1c1ncc(-c2ccc3c(c2)Oc2ccc(-c4cnc([C@@H]5CCCN5C(=O)[C@@H](NC(=O)OC)[C@@H](C)CC)[nH]4)cc2C32CC2)[nH]1` [Compound 79] here?
Its EC50 is < 1 nM.

For `COC(=O)N[C@H](C(=O)N1CCC[C@H]1c1ncc(-c2ccc3c(=O)c4cc(-c5cnc([C@@H]6CSCN6C(=O)[C@@H](NC(=O)OC)[C@@H](C)OC)[nH]5)ccc4oc3c2)[nH]1)[C@@H](C)OC` [Compound 120], which EC50 is on record?
The EC50 was < 1 nM.

How did the EC50 turn out when `COC(=O)N[C@@H](C(=O)N1CCC[C@H]1c1ncc(-c2ccc3c(=O)c4cc(-c5cnc([C@@H]6CSCN6C(=O)[C@H](NC(=O)OC)c6ccccc6)[nH]5)ccc4oc3c2)[nH]1)c1ccccc1` [Compound 121] was run?
The EC50 was < 1 nM.

For `COC(=O)N[C@H](C(=O)N1CCC[C@H]1c1ncc(-c2ccc3c(=O)c4cc(-c5cnc([C@@H]6CSCN6C(=O)[C@@H](NC(=O)OC)C(C)C)[nH]5)ccc4oc3c2)[nH]1)C(C)C` [Compound 122], which EC50 is on record?
The EC50 was < 1 nM.

Which EC50 does the source give for `CC[C@H](C)[C@H](NC(=O)OC)C(=O)N1CCC[C@H]1c1ncc(-c2ccc3c(=O)c4cc(-c5cnc([C@@H]6CSCN6C(=O)[C@@H](NC(=O)OC)[C@@H](C)CC)[nH]5)ccc4oc3c2)[nH]1` [Compound 123] here?
Its EC50 is < 1 nM.

How did the EC50 turn out when `COC(=O)N[C@H](C(=O)N1CCC[C@H]1c1ncc(-c2ccc3c(c2)Oc2ccc(-c4cnc([C@@H]5CSCN5C(=O)[C@@H](NC(=O)OC)C(C)C)[nH]4)cc2C3)[nH]1)C(C)C` [Compound 124] was run?
The EC50 was < 1 nM.

`CC[C@H](C)[C@H](NC(=O)OC)C(=O)N1CCC[C@H]1c1ncc(-c2ccc3c(c2)Oc2ccc(-c4cnc([C@@H]5CSCN5C(=O)[C@@H](NC(=O)OC)[C@@H](C)CC)[nH]4)cc2C3)[nH]1` [Compound 125] was tested. Which EC50 did it give?
The EC50 was < 1 nM.

`COC(=O)N[C@H](C(=O)N1CCC[C@H]1c1ncc(-c2ccc3oc4cc(-c5cnc([C@@H]6CCCN6C(=O)[C@@H](NC(=O)OC)C(C)C)[nH]5)c(C)cc4c(=O)c3c2)[nH]1)C(C)C` [Compound 126] was tested. Which EC50 did it give?
The EC50 was < 1 nM.

With `COC(=O)N[C@@H](C(=O)N1CCC[C@H]1c1ncc(-c2ccc3oc4cc(-c5cnc([C@@H]6CCCN6C(=O)[C@H](NC(=O)OC)c6ccccc6)[nH]5)c(C)cc4c(=O)c3c2)[nH]1)c1ccccc1` [Compound 127] as the compound, how does the EC50 read?
Its EC50 is < 1 nM.

`COC(=O)N[C@H](C(=O)N1CSC[C@H]1c1ncc(-c2ccc3c(=O)c4cc(-c5cnc([C@@H]6CSCN6C(=O)[C@@H](NC(=O)OC)C(C)C)[nH]5)ccc4oc3c2)[nH]1)C(C)C` [Compound 128] was tested. Which EC50 did it give?
The EC50 was < 1 nM.

With `COC(=O)N[C@@H](C(=O)N1CSC[C@H]1c1ncc(-c2ccc3c(=O)c4cc(-c5cnc([C@@H]6CSCN6C(=O)[C@H](NC(=O)OC)c6ccccc6)[nH]5)ccc4oc3c2)[nH]1)c1ccccc1` [Compound 129] as the compound, how does the EC50 read?
The EC50 was < 1 nM.

For `CC[C@H](C)[C@H](NC(=O)OC)C(=O)N1CCC[C@H]1c1ncc(-c2ccc3c(=O)c4cc(-c5cnc([C@@H]6COCCN6C(=O)[C@@H](NC(=O)OC)[C@@H](C)CC)[nH]5)ccc4oc3c2)[nH]1` [Compound 130], which EC50 is on record?
Its EC50 is < 1 nM.

`COC(=O)N[C@H](C(=O)N1CCC[C@H]1c1ncc(-c2ccc3c(=O)c4cc(-c5cnc([C@@H]6COCCN6C(=O)[C@@H](NC(=O)OC)[C@@H](C)OC)[nH]5)ccc4oc3c2)[nH]1)[C@@H](C)OC` [Compound 131] was tested. Which EC50 did it give?
The EC50 was < 1 nM.

For `CC[C@H](C)[C@H](NC(=O)OC)C(=O)N1CCCC[C@H]1c1ncc(-c2ccc3oc4cc(-c5cnc([C@@H]6CCCN6C(=O)[C@@H](NC(=O)OC)[C@@H](C)CC)[nH]5)ccc4c(=O)c3c2)[nH]1` [Compound 132], which EC50 is on record?
Its EC50 is < 1 nM.

`COC(=O)N[C@H](C(=O)N1CCC[C@H]1c1ncc(-c2ccc3c(c2)C(C)(C)c2ccc(-c4ccc5nc([C@@H]6CCCN6C(=O)[C@@H](NC(=O)OC)C(C)C)[nH]c5c4)cc2O3)[nH]1)C(C)C` [Compound 133] was tested. Which EC50 did it give?
The EC50 was < 1 nM.

With `COC(=O)N[C@@H](C(=O)N1CCC[C@H]1c1ncc(-c2ccc3c(c2)C(C)(C)c2ccc(-c4ccc5nc([C@@H]6CCCN6C(=O)[C@H](NC(=O)OC)c6ccccc6)[nH]c5c4)cc2O3)[nH]1)c1ccccc1` [Compound 134] as the compound, how does the EC50 read?
Its EC50 is < 1 nM.

How did the EC50 turn out when `COC(=O)N[C@H](C(=O)N1CCC[C@H]1c1nc2ccc(-c3ccc4c(=O)c5cc(-c6cnc([C@@H]7CCCN7C(=O)[C@@H](NC(=O)OC)[C@@H](C)OC)[nH]6)ccc5oc4c3)cc2[nH]1)C(C)C` [Compound 135] was run?
The EC50 was < 1 nM.

`CC[C@H](C)[C@H](NC(=O)OC)C(=O)N1CCC[C@H]1c1ncc(-c2ccc3oc4cc(-c5ccc6nc([C@@H]7CCCN7C(=O)[C@@H](NC(=O)OC)C(C)C)[nH]c6c5)ccc4c(=O)c3c2)[nH]1` [Compound 136] was tested. Which EC50 did it give?
The EC50 was < 1 nM.

With `COC(=O)N[C@H](C(=O)N1CCC[C@H]1c1nc2ccc(-c3ccc4c(=O)c5cc(-c6cnc([C@@H]7CCCN7C(=O)[C@H](NC(=O)OC)c7ccccc7)[nH]6)ccc5oc4c3)cc2[nH]1)C(C)C` [Compound 137] as the compound, how does the EC50 read?
Its EC50 is < 1 nM.

With `CC[C@H](C)[C@H](NC(=O)OC)C(=O)N1CCC[C@H]1c1ncc(-c2ccc3c(=O)c4cc(-c5cnc([C@@H]6CCCN6C(=O)[C@@H](NC(=O)OC)[C@@H](C)CC)[nH]5)ccc4oc3c2)[nH]1` [Compound 138] as the compound, how does the EC50 read?
Its EC50 is < 1 nM.

`COC(=O)N[C@H](C(=O)N1CCC[C@H]1c1ncc(-c2ccc3c(=O)c4cc(-c5cnc([C@@H]6CCCN6C(=O)[C@@H](NC(=O)OC)C6CCCC6)[nH]5)ccc4oc3c2)[nH]1)C1CCCC1` [Compound 139] was tested. Which EC50 did it give?
Its EC50 is < 1 nM.

For `COC(=O)N[C@H](C(=O)N1CCCC[C@H]1c1ncc(-c2ccc3oc4cc(-c5cnc([C@@H]6CCCN6C(=O)[C@@H](NC(=O)OC)[C@@H](C)OC)[nH]5)ccc4c(=O)c3c2)[nH]1)[C@@H](C)OC` [Compound 140], which EC50 is on record?
Its EC50 is < 1 nM.

`COC(=O)N[C@H](C(=O)N1CCCC[C@H]1c1ncc(-c2ccc3oc4cc(-c5cnc([C@@H]6CCCN6C(=O)[C@@H](NC(=O)OC)C(C)C)[nH]5)ccc4c(=O)c3c2)[nH]1)C(C)C` [Compound 141] was tested. Which EC50 did it give?
Its EC50 is < 1 nM.

`COC(=O)N[C@H](C(=O)N1CCC[C@H]1c1ncc(-c2ccc3c(=O)c4cc(-c5cnc([C@@H]6COCCN6C(=O)[C@@H](NC(=O)OC)C(C)C)[nH]5)ccc4oc3c2)[nH]1)C(C)C` [Compound 142] was tested. Which EC50 did it give?
Its EC50 is < 1 nM.

`CC[C@H](C)[C@H](NC(=O)OC)C(=O)N1CCC[C@H]1c1ncc(-c2ccc3c(c2)Oc2ccc(-c4cnc([C@@H]5COCCN5C(=O)[C@@H](NC(=O)OC)[C@@H](C)CC)[nH]4)cc2C3)[nH]1` [Compound 143] was tested. Which EC50 did it give?
Its EC50 is < 1 nM.

With `COC(=O)N[C@H](C(=O)N1CCC[C@H]1c1ncc(-c2ccc3c(c2)Oc2ccc(-c4cnc([C@@H]5COCCN5C(=O)[C@@H](NC(=O)OC)C(C)C)[nH]4)cc2C3)[nH]1)C(C)C` [Compound 144] as the compound, how does the EC50 read?
The EC50 was < 1 nM.

`CC[C@H](C)[C@H](NC(=O)OC)C(=O)N1CCC[C@H]1c1ncc(-c2ccc3oc4cc(-c5ccc6nc([C@@H]7CCCN7C(=O)[C@@H](NC(=O)OC)[C@@H](C)OC)[nH]c6c5)ccc4c(=O)c3c2)[nH]1` [Compound 145] was tested. Which EC50 did it give?
The EC50 was < 1 nM.
